Experiments:
DNA polymerases = assay: Primer extension with several different DNA polymerases, template directing dATP, dATP, dATP, dGTP (FIG. 12); type: biochemical; settings: only the indicated nucleotide, 100 μM, 30 minutes
Description: Different Polymerases React Differently to the ANS-γ-modified Nucleotides: primer extension reactions were performed to determine the ability of various polymerases to incorporate γ-tagged dNTPs during DNA polymerization. Control reactions contained natural dNTPs to monitor for template-directed nucleotide incorporation as well as for misincorporation as shown in FIG. 12. The reactions were performed in the appropriate buffer and contained the specified polymerase, primer/template duplex (radiolabeled ‘TOP’ primer annealed to ‘BOT-3TC’ template), and only the indicated dNTP. The reactions were carried out at room temperature or at 37° C. for 30 minutes and were stopped by the addition of […]. The volume of the reaction was then reduced to approximately 2-4 μL, loading dye was added and the polymerization products were electrophoresed through a 20% denaturing polyacrylamide gel. Arrows indicate the position of the free labeled ‘TOP’. Asterisks indicate 3-base extension.
Primer extension experiments were performed with several different DNA polymerases to determine whether any of them could incorporate the ANS-γ-phosphate modified nucleotides (FIG. 12). These experiments were performed by incubating the indicated polymerase in appropriate extension buffer, 100 μM ANS-γ-modified dATP, and a 5′-^32P end-labeled primer annealed to a template that directed sequential incorporation of dATP, dATP, dATP dGTP. Positive and negative control reactions containing natural dATP or dGTP, respectively, were run in parallel to monitor template-directed nucleotide incorporation or mis-incorporation. Reactions containing dATP should produce 3-base extension products, whereas those containing dGTP should not produce extended products (due to the absence of dATP). No products longer than 3-bases should result, since no reaction contained more than one nucleotide type. […] Reaction products were heat denatured, loaded onto a 20% denaturing polyacrylamide gel, size-separated (2400 V; 1 hour), and detected via phosphorimaging.

Taq DNA polymerase = target: T1, Taq DNA polymerase (Thermus aquaticus, UniProt P19821); assay: Primer extension assay with a single nucleotide, TOP primer/BOT template duplexes (FIG. 1); type: biochemical; settings: for DNA strand extension and misincorporation on a template with multiple Ts: template BOT-3TC, lanes 10, 11
T1 construct: purchased Promega Corporation
T1 sequence (P19821 whole entry): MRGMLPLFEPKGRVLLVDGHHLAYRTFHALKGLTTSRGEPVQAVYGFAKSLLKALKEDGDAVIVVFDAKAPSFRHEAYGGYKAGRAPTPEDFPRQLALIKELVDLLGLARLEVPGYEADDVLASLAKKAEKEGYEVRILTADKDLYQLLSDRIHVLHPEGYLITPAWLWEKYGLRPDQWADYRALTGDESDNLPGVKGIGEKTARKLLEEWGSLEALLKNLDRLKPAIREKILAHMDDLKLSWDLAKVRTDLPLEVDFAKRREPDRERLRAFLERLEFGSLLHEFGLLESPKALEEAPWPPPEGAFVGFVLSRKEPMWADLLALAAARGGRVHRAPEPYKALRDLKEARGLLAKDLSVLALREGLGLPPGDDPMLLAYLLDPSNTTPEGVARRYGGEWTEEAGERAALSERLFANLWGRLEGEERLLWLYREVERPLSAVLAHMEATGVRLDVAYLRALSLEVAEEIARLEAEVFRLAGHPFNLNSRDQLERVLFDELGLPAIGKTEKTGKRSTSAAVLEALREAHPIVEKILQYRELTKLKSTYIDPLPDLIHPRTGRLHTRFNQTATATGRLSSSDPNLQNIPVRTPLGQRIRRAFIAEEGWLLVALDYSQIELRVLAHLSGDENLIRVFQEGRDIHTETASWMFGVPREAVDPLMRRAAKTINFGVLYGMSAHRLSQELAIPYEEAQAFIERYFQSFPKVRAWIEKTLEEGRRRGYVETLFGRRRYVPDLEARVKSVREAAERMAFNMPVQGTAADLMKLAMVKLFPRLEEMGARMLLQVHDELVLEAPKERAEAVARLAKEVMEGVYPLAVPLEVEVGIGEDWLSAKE
Description: The ability of a commercially available polymerase to incorporate the novel dNTPs synthesized was monitored using primer extension assays.
This first example illustrates the incorporation of ANS-γ-phosphate dATP to produce extended DNA products from primer/template duplexes. The reactions were carried out in extension buffer and the resulting radiolabeled products were size separated on a 20% denaturing polyacrylamide gel. Data were collected using a phosphorimaging system. Referring now FIG. 1, Lane 1 contained 5′ radiolabeled ‘TOP’ probe in extension buffer. Lane 2 contained Taq DNA polymerase, 50 μM dGTP incubated with a DNA duplex (radiolabeled TOP with excess ‘BOT-Sau’). Lane 3 contained Taq DNA polymerase, 50 μM dATP incubated with a DNA duplex (radiolabeled TOP with excess ‘BOT-Sau’). Lane 4 contained Taq DNA polymerase, 50 μM ANS-γ-dATP incubated with a DNA duplex (radiolabeled TOP with excess ‘BOT-Sau’). Lane 5 contained Taq DNA polymerase, 50 μM dGTP incubated with a DNA duplex (radiolabeled TOP with excess ‘BOT-TC’). Lane 6 contained spill-over from lane 5. Lane 7 contained Taq DNA polymerase, 50 μM dATP incubated with a DNA duplex (radiolabeled TOP with excess ‘BOT-TC’). Lane 8 contained Taq DNA polymerase, 50 μM ANS-γ-dATP incubated with a DNA duplex (radiolabeled TOP with excess ‘BOT-TC’). Lane 9 contained Taq DNA polymerase, 50 μM dGTP incubated with a DNA duplex (radiolabeled TOP with excess ‘BOT-3TC’). Lane 10 contained Taq DNA polymerase, 50 μM dATP incubated with a DNA duplex (radiolabeled TOP with excess ‘BOT-3TC’). Lane 11 contained Taq DNA polymerase, ANS-γ-dATP incubated with a DNA duplex (radiolabeled TOP with excess ‘BOT-3TC’). Lane 12 contained 5′ radiolabeled ‘TOP’ probe in extension buffer. Lane 13 contained 5′ radiolabeled ‘TOP’ probe and Taq DNA polymerase in extension buffer.
In these experiments, Taq DNA polymerase (2.5 units/reaction; Promega Corporation) was incubated in polymerase reaction buffer with 10,000 cpm of 5′-^32P end-labeled ‘TOP’ primer, 10 ng of the indicated single-stranded template, and the specified dNTP. The sequences of the oligonucleotides are shown (Table 1). Extension reactions were incubated for 30 minutes, and terminated by the addition of 1 µl of 0.5 M EDTA. The reactions were lyophilized and resuspended in 3.5 µl of sequencing loading buffer. Reaction products were heat denatured, loaded onto a 20% denaturing polyacrylamide gel, size-separated, and quantified using a phosphorimaging system (Fuji Medical Systems, Inc.).

[1] = template BOT-3TC (three A's to be incorporated), lanes 9-11
[2] = template BOT-Sau (first incorporated base should be dGTP), 50 μM nucleotide, lanes 2-4
[3] = template BOT-TC (single A to be incorporated), 50 μM nucleotide, lanes 5-8

Nc1ncnc2c1ncn2[C@H]1C[C@H](O)[C@@H](COP(=O)(O)OP(=O)(O)OP(=O)(O)O)O1 [dATP]
extension products formed (DNA polymerases): increased amounts of mis-extended products
Percent Correct (Taq DNA polymerase; [1]): 27.11%
Percent Mis-Extended (Taq DNA polymerase; [1]): 54.92%
Total Percent Extended (Taq DNA polymerase; [1]): 82.03%
DNA strand extension and misincorporation on a template with multiple Ts (Taq DNA polymerase): frequently misincorporated opposite a template C
Percent Correct (Taq DNA polymerase; [2]): 61.99%
Percent Mis-Extended (Taq DNA polymerase; [2]): 38.01%
Total Percent Extended (Taq DNA polymerase; [2]): 38.01%
Percent Correct (Taq DNA polymerase; [3]): 15.24%
Percent Mis-Extended (Taq DNA polymerase; [3]): 69.01%
Total Percent Extended (Taq DNA polymerase; [3]): 84.25%
percent extension of the TOP primer (template-directed single base) (Taq DNA polymerase; template BOT-TC, first incorporated base should be dATP, lanes 7, 8): 75%
extension products misextended opposite a template C (Taq DNA polymerase; template BOT-TC, lane 7, percent of the extension products): 60%
misextended products further extended by the enzyme's terminal transferase activity (Taq DNA polymerase; template BOT-TC, lane 7, percent of the misextended products): 34%

Nc1nc2c(ncn2[C@H]2C[C@H](O)[C@@H](COP(=O)(O)OP(=O)(O)OP(=O)(O)O)O2)c(=O)[nH]1 [dGTP]
extension products formed (DNA polymerases): increased amounts of mis-extended products
Percent Correct (Taq DNA polymerase; [1]): 32.20%
Percent Mis-Extended (Taq DNA polymerase; [1]): 67.80%
Total Percent Extended (Taq DNA polymerase; [1]): 67.80%
Percent Correct (Taq DNA polymerase; [2]): 52.99%
Percent Mis-Extended (Taq DNA polymerase; [2]): 19.97%
Total Percent Extended (Taq DNA polymerase; [2]): 72.97%
Percent Correct (Taq DNA polymerase; [3]): 24.99%
Percent Mis-Extended (Taq DNA polymerase; [3]): 75.01%
Total Percent Extended (Taq DNA polymerase; [3]): 75.01%

ANS γ-phosphoamide dATP [ANS-γ-dATP]
extension products formed (DNA polymerases): expected 3-base extension products accumulate
decrease in misextensions, tagged nucleotide versus dATP (Taq DNA polymerase; G is to be incorporated, dATP the only nucleotide in the reaction medium): ~3 fold
decrease in misextensions, tagged nucleotide versus dATP (Taq DNA polymerase; a single A is to be incorporated): ~11 fold
Percent Correct (Taq DNA polymerase; [1]): 73.43%
Percent Mis-Extended (Taq DNA polymerase; [1]): 3.87%
Total Percent Extended (Taq DNA polymerase; [1]): 77.31%
DNA strand extension and misincorporation on a template with multiple Ts (Taq DNA polymerase): multiple modified nucleotides are incorporated
Percent Correct (Taq DNA polymerase; [2]): 87.43%
Percent Mis-Extended (Taq DNA polymerase; [2]): 12.57%
Total Percent Extended (Taq DNA polymerase; [2]): 12.57%
non-specific, single-base extension (Taq DNA polymerase; template BOT-Sau, first incorporated base should be dGTP (not added), lane 4 vs lane 1): very little non-specific, single-base extension
Percent Correct (Taq DNA polymerase; [3]): 71.14%
Percent Mis-Extended (Taq DNA polymerase; [3]): 6.51%
Total Percent Extended (Taq DNA polymerase; [3]): 77.64%
decrease in misextensions, tagged nucleotide versus dATP (Taq DNA polymerase; three A's are to be incorporated): ~14 fold
